Measurements: the supplement of paper PMC11451515

System: NOMO1
Assay: cell viability relative to DMSO control; higher = less cytotoxic
Details: 48 h
Outline: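 Viability is a per-plate percentage relative to DMSO wells, with cell-free wells as background. CellTiter-Glo One luminescence was read after 48 h at 37°C on 1536-well plates (5 μl) of NOMO1 or SEM (500 cells/well) or P12-Ichikawa (1000 cells/well) leukemia cells. The cells had been adapted for at least four passages in each medium and pin-dosed with library compounds in DMSO from 47 μM to 0.79 nM in 11 threefold steps.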

[1] = HPLM + 10% dialyzed FBS, 0.000781 µM
[2] = HPLM + 10% dialyzed FBS, 0.00234 µM
[3] = HPLM + 10% dialyzed FBS, 0.00702 µM
[4] = HPLM + 10% dialyzed FBS, 0.0211 µM
[5] = HPLM + 10% dialyzed FBS, 0.0632 µM
[6] = HPLM + 10% dialyzed FBS, 0.19 µM
[7] = HPLM + 10% dialyzed FBS, 0.569 µM
[8] = HPLM + 10% dialyzed FBS, 1.71 µM
[9] = HPLM + 10% dialyzed FBS, 5.12 µM
[10] = HPLM + 10% dialyzed FBS, 15.4 µM
[11] = HPLM + 10% dialyzed FBS, 46.1 µM
[12] = RPMI 5 mM glucose + 10% FBS, 0.000781 µM
[13] = RPMI 5 mM glucose + 10% FBS, 0.00234 µM
[14] = RPMI 5 mM glucose + 10% FBS, 0.00702 µM
[15] = RPMI 5 mM glucose + 10% FBS, 0.0211 µM
[16] = RPMI 5 mM glucose + 10% FBS, 0.0632 µM
[17] = RPMI 5 mM glucose + 10% FBS, 0.19 µM
[18] = RPMI 5 mM glucose + 10% FBS, 0.569 µM
[19] = RPMI 5 mM glucose + 10% FBS, 1.71 µM
[20] = RPMI 5 mM glucose + 10% FBS, 5.12 µM
[21] = RPMI 5 mM glucose + 10% FBS, 15.4 µM
[22] = RPMI 5 mM glucose + 10% FBS, 46.1 µM
[23] = RPMI 5 mM glucose + 10% dialyzed FBS, 0.000781 µM
[24] = RPMI 5 mM glucose + 10% dialyzed FBS, 0.00234 µM
[25] = RPMI 5 mM glucose + 10% dialyzed FBS, 0.00702 µM
[26] = RPMI 5 mM glucose + 10% dialyzed FBS, 0.0211 µM
[27] = RPMI 5 mM glucose + 10% dialyzed FBS, 0.0632 µM
[28] = RPMI 5 mM glucose + 10% dialyzed FBS, 0.19 µM
[29] = RPMI 5 mM glucose + 10% dialyzed FBS, 0.569 µM
[30] = RPMI 5 mM glucose + 10% dialyzed FBS, 1.71 µM
[31] = RPMI 5 mM glucose + 10% dialyzed FBS, 5.12 µM
[32] = RPMI 5 mM glucose + 10% dialyzed FBS, 15.4 µM
[33] = RPMI 5 mM glucose + 10% dialyzed FBS, 46.1 µM

Structure (SMILES) | cell viability [1] [%] | cell viability [2] [%] | cell viability [3] [%] | cell viability [4] [%] | cell viability [5] [%] | cell viability [6] [%] | cell viability [7] [%] | cell viability [8] [%] | cell viability [9] [%] | cell viability [10] [%] | cell viability [11] [%] | cell viability [12] [%] | cell viability [13] [%] | cell viability [14] [%] | cell viability [15] [%] | cell viability [16] [%] | cell viability [17] [%] | cell viability [18] [%] | cell viability [19] [%] | cell viability [20] [%] | cell viability [21] [%] | cell viability [22] [%] | cell viability [23] [%] | cell viability [24] [%] | cell viability [25] [%] | cell viability [26] [%] | cell viability [27] [%] | cell viability [28] [%] | cell viability [29] [%] | cell viability [30] [%] | cell viability [31] [%] | cell viability [32] [%] | cell viability [33] [%]
Cc1c(NC(=O)OC[C@@H]2COCCN2)cn2ncnc(Nc3ccc4c(cnn4Cc4cccc(F)c4)c3)c12 | 67.5 | 75.4 | 80.3 | 90.6 | 93.2 | 102 | 92.8 | 76 | 88.7 | 60.5 | 18.6 | 97.2 | 86.6 | 85.2 | 93.5 | 91.6 | 89.5 | 89.9 | 92.7 | 84.6 | 74.9 | 40 | 77.6 | 80.4 | 86.3 | 85.8 | 88.3 | 86.5 | 89 | 91.7 | 89.4 | 80.3 | 37.5
Cc1cn([C@@H]2O[C@H](CO)[C@@H](O)[C@@H]2F)c(=O)[nH]c1=O | – | – | – | – | – | – | – | – | – | – | – | 93.5 | 108 | 102 | 117 | 114 | 121 | 110 | 115 | 109 | 113 | 29 | 86.1 | 120 | 114 | 108 | 123 | 119 | 127 | 120 | 103 | 126 | 22.4
CCn1c(-c2nonc2N)nc2cnc(Oc3cccc(NC(=O)c4ccc(OCCN5CCOCC5)cc4)c3)cc21 | 90.6 | 123 | 105 | 117 | 117 | 104 | 115 | 110 | 94.6 | 95.3 | 83.2 | 92.8 | 98.6 | 111 | 109 | 110 | 95.8 | 87.4 | 93.8 | 82.4 | 74.1 | 64 | 88.9 | 107 | 110 | 102 | 115 | 103 | 89.9 | 87.6 | 79.1 | 71.2 | 74.4
CNC(=O)c1ccc(N2C(=S)N(c3ccc(C#N)c(C(F)(F)F)c3)C(=O)C23CCC3)cc1F | 90.5 | 90.2 | 91.7 | 33.3 | 95.1 | 105 | 103 | 107 | 92.6 | 93.2 | 111 | 80.5 | 88.3 | 83.6 | 18.9 | 98.9 | 88 | 92 | 86.6 | 96 | 88.4 | 99.1 | 84.9 | 93.1 | 108 | 34.6 | 100 | 90.6 | 95.2 | 93.1 | 95.6 | 91.7 | 103
C/C=C1\C2C=C(C)CC1(N)c1ccc(=O)[nH]c1C2 (centres undefined) | 107 | 117 | 113 | 114 | 109 | 104 | 117 | 106 | 110 | 95.1 | 79.4 | 94.6 | 96.4 | 99.2 | 115 | 96.3 | 93.7 | 102 | 105 | 102 | 91 | 90.8 | 90.4 | 103 | 96.7 | 103 | 108 | 96.1 | 94.1 | 99.9 | 95 | 98.8 | 81
CC(C)(C)c1[nH]cnc1/C=c1\[nH]c(=O)/c(=C/c2ccccc2)[nH]c1=O | 101 | 76.7 | 31 | 46 | 52.7 | 37.5 | 42.1 | 32.5 | 20.3 | 22.1 | 5.6 | 128 | 109 | 24.3 | 24.5 | 28.9 | 23.9 | 24.9 | 17.4 | 18.4 | 14.6 | 6.53 | 103 | 105 | 24.9 | 26.2 | 29.5 | 27.8 | 30.6 | 20.8 | 23.2 | 16.5 | 3.92
O=C(c1ccc(Nc2nccc(-c3cc4ccccc4s3)n2)cc1)N1CCC(N2CCCC2)CC1 | 122 | 132 | 125 | 125 | 124 | 114 | 105 | 95.3 | 104 | 41.8 | 1.51 | 113 | 126 | 107 | 110 | 106 | 119 | 118 | 101 | 96.2 | 91.3 | 2.67 | 122 | 129 | 115 | 114 | 124 | 106 | 120 | 121 | 95 | 80.2 | 2.88
Cc1cnc(-c2cc(N3CCN(C(=O)CC[S+](C)(=O)[O-])CC3)ncc2Cl)c(C)c1 | 96.3 | 125 | 132 | 126 | 132 | 134 | 127 | 129 | 137 | 134 | 191 | – | – | – | – | – | – | – | – | – | – | – | – | – | – | – | – | – | – | – | – | – | –
CC(C)C(=O)Oc1ccc(CO)cc1[C@H](CCN(C(C)C)C(C)C)c1ccccc1 | 99.1 | 104 | 85.7 | 87 | 85.6 | 91.8 | 93.3 | 88.9 | 78.9 | 81.1 | 71.7 | 85.2 | 78.8 | 88.8 | 93.3 | 82.5 | 76 | 80 | 83.4 | 85.2 | 79.1 | 78.4 | 78.3 | 79.6 | 86.4 | 78.9 | 73.8 | 79.2 | 73.5 | 80.8 | 77.4 | 82.5 | 79.1
COC1=CC=C(C=C1)C/2=C/OC3=C(C(=CC(=C3)O)O)C2=O | 111 | 124 | 133 | 114 | 130 | 123 | 133 | 122 | 116 | 114 | 60.5 | – | – | – | – | – | – | – | – | – | – | – | 111 | 116 | 120 | 130 | 156 | 144 | 144 | 140 | 140 | 143 | 106
CSCC[C@@H](NC(=O)[C@@H](Cc1ccccc1)NC(=O)CNC(=O)CNC(=O)[C@@H](N)Cc1ccc(O)cc1)C(=O)O | 77.4 | 90.8 | 110 | 28.1 | 110 | 121 | 121 | 104 | 92 | 100 | 109 | 91.8 | 89.3 | 105 | 22.1 | 110 | 103 | 102 | 100 | 95.4 | 101 | 97.9 | 87.1 | 97.4 | 94.6 | 34.8 | 88.3 | 103 | 97.6 | 111 | 99.9 | 113 | 109
C[C@]12CC[C@@H]3c4ccc(O)cc4C[C@@H](CCCCCCCCC[S+]([O-])CCCC(F)(F)C(F)(F)F)[C@H]3[C@@H]1CC[C@@H]2O (some centres undefined) | – | – | – | – | – | – | – | – | – | – | – | 103 | 118 | 104 | 131 | 121 | 113 | 107 | 104 | 115 | 118 | 104 | – | – | – | – | – | – | – | – | – | – | –
Cc1cn(-c2cc(NC(=O)c3ccc(C)c(Nc4nccc(-c5cccnc5)n4)c3)cc(C(F)(F)F)c2)cn1 | 100 | 122 | 123 | 135 | 130 | 117 | 103 | 88.8 | 95.3 | 95.2 | 114 | 99.7 | 111 | 115 | 127 | 113 | 131 | 117 | 66.5 | 61.3 | 74.2 | 68.4 | 102 | 109 | 107 | 106 | 114 | 114 | 111 | 86.8 | 67.2 | 66.3 | 62.9
CC1(C)O[C@@H]2C[C@H]3[C@@H]4CCC5=CC(=O)C=C[C@]5(C)[C@H]4[C@@H](O)C[C@]3(C)[C@]2(C(=O)CO)O1 | 95 | 92.4 | 104 | 90.7 | 119 | 108 | 117 | 98.5 | 95.2 | 91.9 | 101 | 87.2 | 92.5 | 90.4 | 88.7 | 97.4 | 110 | 88.7 | 92.5 | 98.5 | 87.8 | 93.6 | 96.7 | 91.4 | 90.9 | 90.4 | 94.2 | 92.9 | 106 | 109 | 104 | 85.6 | 103
COc1cc2ncnc(Nc3cc(Br)c(O)c(Br)c3)c2cc1OC | 95.8 | 91 | 114 | 112 | 107 | 102 | 120 | 119 | 97.2 | 111 | 85.6 | 99.5 | 115 | 99.8 | 103 | 118 | 113 | 109 | 109 | 107 | 110 | 106 | 92.4 | 99.7 | 99.3 | 107 | 105 | 96.8 | 108 | 112 | 103 | 104 | 98.2
C=C(C)[C@H]1Cc2c(ccc3c2O[C@@H]2COc4cc(OC)c(OC)cc4[C@@H]2C3=O)O1 | 103 | 102 | 120 | 110 | 124 | 116 | 107 | 89.2 | 52.6 | 37.3 | 28.8 | 105 | 118 | 105 | 106 | 109 | 102 | 102 | 102 | 63.8 | 23.9 | 20.4 | 99.3 | 101 | 98.4 | 99.8 | 104 | 104 | 87.8 | 98.7 | 81.5 | 29.5 | 24.1
C=CC(=O)N1CCC[C@@H](n2nc(-c3ccc(Oc4ccccc4)cc3)c3c(N)ncnc32)C1 | – | – | – | – | – | – | – | – | – | – | – | 117 | 117 | 113 | 101 | 110 | 99.2 | 110 | 107 | 132 | 108 | 121 | 122 | 123 | 113 | 102 | 119 | 113 | 118 | 117 | 120 | 129 | 95.9
